Measurements from PMC11636681, “Pharmacokinetics and pharmacodynamics of antibacterial peptide NZX in Staphylococcus aureus mastitis mouse model” (Applied Microbiology and Biotechnology, 2024).
In brackets after ≈: the same amount, converted by molar mass. Positions of bridges follow the written chain, without caps; N, C: chain ends. Residues, ends and D or L forms follow the SMILES beside them.

How the values were obtained:
S. aureus ATCC 25923 [1] = experiment: MIC and MBC determination (CLSI broth microdilution); format: cell-based; conditions: Staphylococcus aureus; for MIC: ATCC25923, 1 × 10^5 CFU/mL, 16–18 h, 37 °C; for MBC: ATCC25923, lowest concentration giving 99.9% died bacteria
Procedure: (§1) Minimal Inhibitory Concentration (MIC), Minimal Bactericidal Concentration (MBC) and Mutant Prevention Concentration (MPC).
(§2) The MIC and MBC values of NZX against the test S. aureus strain were determined according to Clinical Laboratory Standards Institute (Watts et al. [2013]). Briefly, a volume of 10 μL diluted NZX with final concentration (1.25–1280 μg/mL) and 90 μL of mid-log phase S. aureus cells (1 × 10^5 CFU/mL) were added into a 96-well plate and co-incubated for 16–18 h at 37 °C. MIC value was defined as the lowest concentration of NZX at which no visible bacterial growth was observed. In addition, the bacteria suspensions were plated on Mueller–Hinton agar (MHA) medium to count, and the lowest concentration of NZX that results in 99.9% of died bacteria was the MBC value.

S. aureus ATCC 43300 [2] = experiment: as above; format: cell-based; conditions: Staphylococcus aureus; for MIC: ATCC43300, 1 × 10^5 CFU/mL, 16–18 h, 37 °C; for MBC: ATCC43300, lowest concentration giving 99.9% died bacteria
Procedure: as §1, §2

S. aureus E48 [3] = experiment: as above; format: cell-based; conditions: Staphylococcus aureus; for MIC: 1 × 10^5 CFU/mL, 16–18 h, 37 °C; for MBC: lowest concentration giving 99.9% died bacteria
Procedure: as §1, §2

S. aureus ATCC 43300 [4] = experiment: Mutant prevention concentration (MPC) on MHA plates; format: cell-based, Staphylococcus aureus; conditions: 1 × 10^10 CFU/mL, 37 °C, 72 h, each concentration three times
Procedure: as §1
MPCs of NZX against the test S. aureus strain were determined as described by Plowgian et al., with some modification (Plowgian et al. [2019]). In brief, S. aureus cells were cultured to mid-log phase in Mueller–Hinton broth (MHB) medium. Then the suspensions were centrifuged (4000 rpm for 5 min) and the pellets were collected and diluted to a final concentration of 1 × 10^10 CFU/mL with MHB. […] All plates were incubated at 37 ^∘C for 72 h and the concentration corresponding to the plate with no bacterial growth was regarded as the provisional mutant prevention concentration (MPCpr). […] Lincomycin and ceftiofur were set as antibiotic controls, respectively. Each concentration was conducted three times.

S. aureus ATCC 25923 [5] = experiment: In vitro dose-killing curves (24 h); format: cell-based, Staphylococcus aureus; conditions: for EC50: Staphylococcus aureus, ATCC25923, 50% reduction in Log10 CFU at 24 h between minimum and maximum; for Cs: concentration causing no apparent growth in Log10 CFU at 24 h vs initial inoculum
Procedure: (§3) The in vitro dose-killing curves of NZX against the test S. aureus strains were conducted as previous described (Brinch et al. [2010]), with some modification. The S. aureus cells in mid-log phage were diluted. Then, the killing curves of NZX against S. aureus strains were carried out in the 48-well plate. Specifically, a volume of 50 μL NZX (0.6–150 μM) was mixed with 450 μL of the above diluted bacterial suspension (5 × 10^5 CFU/mL), and the mixtures were incubated in the Micro Oscillator for 24 h (600 rpm, 37 °C). Subsequently, the bacteria suspensions were plated on MHA medium to count. Lincomycin and ceftiofur were set as antibiotic controls, respectively. PBS was negative control. Results were expressed as the average of three independent experiments data.

S. aureus E48 [6] = experiment: In vitro dose-killing curves (24 h); format: cell-based, Staphylococcus aureus; conditions: for EC50: Staphylococcus aureus, 50% reduction in Log10 CFU at 24 h between minimum and maximum; for Cs: concentration causing no apparent growth in Log10 CFU at 24 h vs initial inoculum
Procedure: as §3

S. aureus ATCC 43300 [7] = experiment: Post antibiotic effect (PAE); format: cell-based, Staphylococcus aureus; conditions: 2 h exposure at 1 × to 8 × MIC, 1 × 10^8 CFU/mL, triplicate
Procedure: PAE was performed based on the method of Zhang et al. (Zhang et al. [2014]). S. aureus E48, S. aureus ATCC 25923 and S. aureus ATCC 43300 were cultured at 37 °C in MHB medium to the log-phase. Then, the diluted cells (1 × 10^8 CFU/mL) were exposed to NZX with final concentration of 1 × , 2 × , 4 × and 8 × MIC in the 48-well plates for 2 h at 37 °C. After incubation, NZX were removed by diluting 1:1000 with MHB medium. Viable counts were determined immediately after drug reconstruction and at 1–2 h interval for at least 10 h. PAE determination was calculated as PAE (h) = T-C, where T is the time (h) that required to increase by tenfold for the drug-treated viable count from the moment of drug reconstruction and C is the time (h) required to increase by tenfold for cell density without treatment. The experiments were conducted in triplication.

S. aureus ATCC 43300 [8] = experiment: Cell membrane permeability, PI staining by flow cytometry; format: cell-based, Staphylococcus aureus
Procedure: Flow cytometry was used for the analysis of the effects of NZX on the penetration rate of the S. aureus cell membrane (Yang et al. [2019]). The S. aureus cells in mid-log phase were adjusted to 1 × 10^8 CFU/mL and the bacteria suspensions were treated with 1 × , 2 × and 4 × MIC of NZX for 2 h at 37 °C. In addition, the cell suspensions were incubated with 2 × MIC of NZX for 0 h, 0.5 h, 1 h and 2 h, respectively. After incubation, the cells were centrifuged at 4000 rpm at 4 °C for 5 min, washed twice with sterile PBS, and pellets were resuspended in 1 mL of PBS. Next, cells were stained with 50 µg/mL propidium iodide (PI) for 30 min in the dark at room temperature, and the proportion of cells with PI positive cells to the total cells were analyzed by flow-cytometry (BD, USA). Lincomycin and ceftiofur were used as positive controls and PBS as negative control. Three replicates for each treatment were conducted.

[9] = 2 × MIC, range over 0, 0.5, 1 and 2 h
[10] = 2 h, range over 1 × MIC, 2 × MIC and 4 × MIC

| Compound | MIC (S. aureus ATCC 25923 [1]) [µM] | MBC (S. aureus ATCC 25923 [1]) [µM] | MIC (S. aureus ATCC 43300 [2]) [µM] | MBC (S. aureus ATCC 43300 [2]) [µM] | MIC (S. aureus E48 [3]) [µM] | MBC (S. aureus E48 [3]) [µM] | MPC (S. aureus ATCC 43300 [4]) [µM] | EC50 (S. aureus ATCC 25923 [5]) [µM] | Cs (S. aureus ATCC 25923 [5]) [µM] | EC50 (S. aureus E48 [6]) [µM] | Cs (S. aureus E48 [6]) [µM] | mean PAE range (S. aureus ATCC 43300 [7]) [h] | percentage of PI-positive cells (S. aureus ATCC 43300 [8]; [9]) | percentage of PI-positive cells (S. aureus ATCC 43300 [8]; [10]) |
| --- | --- | --- | --- | --- | --- | --- | --- | --- | --- | --- | --- | --- | --- | --- |
| CO/N=C(\C(=O)N[C@@H]1C(=O)N2C(C(=O)O)=C(CSC(=O)c3ccco3)CS[C@H]12)c1csc(N)n1 [Ceftiofur] | 1.83 (≈ 0.958 µg/mL) | 3.67 (≈ 1.92 µg/mL) | 1.83 (≈ 0.958 µg/mL) | 1.83 (≈ 0.958 µg/mL) | 1.83 (≈ 0.958 µg/mL) | 3.67 (≈ 1.92 µg/mL) | 7.32 | 0.71 | 0.77 | 1.18 | 1.11 | 0.82 to 1.76 | 1.82–24.20% | 15.5–15.8% |
| CCC[C@@H]1C[C@@H](C(=O)N[C@@H]([C@H]2O[C@H](SC)[C@H](O)[C@@H](O)[C@H]2O)[C@@H](C)O)N(C)C1 [Lincomycin] | 2.17 (≈ 0.882 µg/mL) | 4.34 (≈ 1.76 µg/mL) | > 139 | > 139 | 2.17 (≈ 0.882 µg/mL) | 4.34 (≈ 1.76 µg/mL) | – | 2.31 | 2.57 | 1.47 | 1.38 | – | – | – |
| CC[C@H](C)[C@@H]1NC(=O)[C@H](CO)NC(=O)[C@H](CCCCN)NC(=O)[C@@H]2CSSC[C@@H](C(=O)N[C@@H](Cc3ccc(O)cc3)C(=O)O)NC(=O)[C@H](CCCCN)NC(=O)[C@@H]3CSSC[C@H](NC(=O)[C@H](CCC(N)=O)NC(=O)[C@H]([C@@H](C)CC)NC(=O)[C@H](CC(=O)O)NC(=O)[C@H](CC(=O)O)NC(=O)[C@H](CCC(=O)O)NC(=O)[C@H](CO)NC(=O)[C@H](Cc4c[nH]c5ccccc45)NC(=O)[C@@H]4CCCN4C(=O)CNC(=O)[C@H](CC(N)=O)NC(=O)[C@@H](NC(=O)CNC(=O)[C@H](Cc4ccccc4)NC(=O)CN)CSSC[C@H](NC(=O)[C@H](Cc4ccc(O)cc4)NC(=O)CNC(=O)CNC(=O)[C@H](CCCCN)NC(=O)[C@H](Cc4ccc(O)cc4)NC(=O)CNC(=O)[C@H](CCCCN)NC1=O)C(=O)N[C@@H](C)C(=O)N[C@@H](CCCNC(=N)N)C(=O)NCC(=O)NCC(=O)N[C@@H](Cc1ccccc1)C(=O)N[C@@H](C(C)C)C(=O)N3)C(=O)N[C@@H](Cc1c[nH]cn1)C(=O)N[C@@H](CC(N)=O)C(=O)N[C@@H](Cc1c[nH]cn1)C(=O)N2 [NZX] (H-GFGCNGPWSEDDIQCHNHCKSIKGYKGGYCARGGFVCKCY-OH; disulfide 4-30, 15-37, 19-39; N-terminus and C-terminus assumed) | – | – | – | – | – | – | 1.18 | – | – | – | – | 0.00 to 8.48 | 1.91 to 75.17% | 57.1–75.1% |
